Reference: PMC10901292 (European journal of medicinal chemistry, 2024)

Key:
[1] = biological target: T1, EZH2 (Homo sapiens, UniProt Q15910); experiment: Western blot of EZH2 protein level in MV4; assay type: cell-based; settings: 11 cells, 24 h treatment, all tested concentrations (Fig. 8A, 8C)
Target sequence in this assay (Q15910 whole entry): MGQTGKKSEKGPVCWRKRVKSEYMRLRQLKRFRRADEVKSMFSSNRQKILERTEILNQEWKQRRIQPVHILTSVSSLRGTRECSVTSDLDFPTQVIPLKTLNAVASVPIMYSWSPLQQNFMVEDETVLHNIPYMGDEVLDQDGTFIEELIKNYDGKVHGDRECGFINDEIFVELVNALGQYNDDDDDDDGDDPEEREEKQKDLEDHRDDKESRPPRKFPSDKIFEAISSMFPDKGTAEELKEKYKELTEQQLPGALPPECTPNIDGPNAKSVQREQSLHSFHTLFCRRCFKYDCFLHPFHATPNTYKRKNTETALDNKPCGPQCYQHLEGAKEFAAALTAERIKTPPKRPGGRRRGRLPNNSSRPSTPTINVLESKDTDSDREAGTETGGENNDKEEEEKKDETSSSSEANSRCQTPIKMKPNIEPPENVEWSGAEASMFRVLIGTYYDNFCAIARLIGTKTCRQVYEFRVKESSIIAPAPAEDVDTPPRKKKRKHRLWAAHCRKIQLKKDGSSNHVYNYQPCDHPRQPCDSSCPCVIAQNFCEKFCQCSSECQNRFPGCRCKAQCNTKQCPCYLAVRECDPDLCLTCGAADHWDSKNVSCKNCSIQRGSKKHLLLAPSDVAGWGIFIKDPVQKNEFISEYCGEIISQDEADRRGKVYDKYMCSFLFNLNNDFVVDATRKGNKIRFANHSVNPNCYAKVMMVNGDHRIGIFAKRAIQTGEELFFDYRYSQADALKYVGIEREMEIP
Target sequence in this assay (O75530 2-441 partner limits assumed): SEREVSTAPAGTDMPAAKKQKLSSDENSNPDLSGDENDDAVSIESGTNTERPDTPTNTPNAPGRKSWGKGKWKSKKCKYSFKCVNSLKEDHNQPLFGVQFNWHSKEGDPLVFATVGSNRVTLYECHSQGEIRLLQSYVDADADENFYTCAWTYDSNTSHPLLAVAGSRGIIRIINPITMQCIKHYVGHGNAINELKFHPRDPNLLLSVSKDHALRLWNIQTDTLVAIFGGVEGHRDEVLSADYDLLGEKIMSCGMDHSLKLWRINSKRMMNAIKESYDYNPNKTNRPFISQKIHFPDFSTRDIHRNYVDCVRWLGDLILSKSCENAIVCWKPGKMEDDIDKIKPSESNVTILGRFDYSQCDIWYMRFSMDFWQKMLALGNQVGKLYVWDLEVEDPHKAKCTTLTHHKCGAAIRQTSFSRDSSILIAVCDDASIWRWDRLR
Target sequence in this assay (Q15022 whole entry partner): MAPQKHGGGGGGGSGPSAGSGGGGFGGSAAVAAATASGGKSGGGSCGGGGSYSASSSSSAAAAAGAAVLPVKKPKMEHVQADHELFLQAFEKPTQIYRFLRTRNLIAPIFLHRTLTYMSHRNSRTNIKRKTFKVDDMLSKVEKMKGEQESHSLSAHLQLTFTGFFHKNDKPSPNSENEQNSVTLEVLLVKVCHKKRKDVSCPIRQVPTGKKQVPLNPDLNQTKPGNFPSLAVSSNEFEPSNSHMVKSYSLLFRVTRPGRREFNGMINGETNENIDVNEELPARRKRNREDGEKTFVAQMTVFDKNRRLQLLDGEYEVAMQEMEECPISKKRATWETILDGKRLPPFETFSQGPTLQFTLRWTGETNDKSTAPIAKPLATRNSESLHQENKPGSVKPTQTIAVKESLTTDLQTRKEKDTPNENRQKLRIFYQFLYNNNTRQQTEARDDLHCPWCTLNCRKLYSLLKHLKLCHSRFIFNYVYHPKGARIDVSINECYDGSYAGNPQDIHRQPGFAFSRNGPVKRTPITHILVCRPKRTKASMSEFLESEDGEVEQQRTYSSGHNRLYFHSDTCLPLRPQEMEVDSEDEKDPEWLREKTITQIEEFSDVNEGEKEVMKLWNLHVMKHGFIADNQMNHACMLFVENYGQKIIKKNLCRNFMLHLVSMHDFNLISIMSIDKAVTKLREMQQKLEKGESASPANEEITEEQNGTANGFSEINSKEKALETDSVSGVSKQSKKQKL

[2] = biological target: T1, EZH2; experiment: Western blot of EZH2 protein level in EOL-1 cells; assay type: cell-based; settings: for EZH2 degradation (EZH2 protein level): 24 h treatment
Target sequence in this assay (Q15910 whole entry): as the sequence (Q15910 whole entry) above
Target sequence in this assay (O75530 2-441 partner limits assumed): as the sequence (O75530 2-441 partner limits assumed) above
Target sequence in this assay (Q15022 whole entry partner): as the sequence (Q15022 whole entry partner) above

[3] = test system: BT549 cells; experiment: Cell viability WST-8; assay type: cell-based
[4] = test system: MDA-MB-468 cells; experiment: Cell viability WST-8; assay type: cell-based
[5] = test system: H3K27me3; experiment: Western blot of H3K27me3 mark in EOL-1 cells; assay type: cell-based; settings: 24 h treatment (Fig. 4A)
[6] = test system: EED; experiment: Western blot of EED in EOL-1 cells; assay type: cell-based; settings: 24 h treatment (Fig. 4B)
[7] = biological target: T2, EZH1 (Homo sapiens, UniProt Q92800); experiment: Western blot of EZH1 degradation; assay type: cell-based; settings: Fig. S3
Target sequence in this assay (Q92800 whole entry): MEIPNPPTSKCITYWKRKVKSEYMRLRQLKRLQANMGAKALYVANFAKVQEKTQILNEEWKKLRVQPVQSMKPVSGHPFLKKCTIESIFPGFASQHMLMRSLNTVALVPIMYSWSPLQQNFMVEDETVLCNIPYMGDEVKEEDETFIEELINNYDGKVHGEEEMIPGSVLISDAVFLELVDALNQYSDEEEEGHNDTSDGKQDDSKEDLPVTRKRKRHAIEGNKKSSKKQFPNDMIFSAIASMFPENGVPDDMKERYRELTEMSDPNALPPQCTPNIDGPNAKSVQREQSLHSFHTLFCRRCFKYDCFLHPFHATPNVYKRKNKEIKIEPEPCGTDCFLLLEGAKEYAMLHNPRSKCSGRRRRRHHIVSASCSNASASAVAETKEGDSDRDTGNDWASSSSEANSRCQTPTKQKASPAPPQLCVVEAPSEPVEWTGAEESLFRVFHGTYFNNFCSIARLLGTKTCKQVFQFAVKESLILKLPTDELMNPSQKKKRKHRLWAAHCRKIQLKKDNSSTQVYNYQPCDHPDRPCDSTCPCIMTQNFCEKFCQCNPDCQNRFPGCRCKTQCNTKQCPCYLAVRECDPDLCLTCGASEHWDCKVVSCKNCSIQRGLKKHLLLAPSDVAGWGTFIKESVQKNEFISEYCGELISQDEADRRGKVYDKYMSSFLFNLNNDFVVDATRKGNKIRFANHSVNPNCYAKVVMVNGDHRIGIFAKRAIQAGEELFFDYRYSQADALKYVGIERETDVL
Target sequence in this assay (O75530 2-441 partner limits assumed): as the sequence (O75530 2-441 partner limits assumed) above
Target sequence in this assay (Q15022 whole entry partner): as the sequence (Q15022 whole entry partner) above

[8] = test system: panel of 20 protein methyltransferases; experiment: Radioactive methyltransferase selectivity panel; assay type: biochemical; settings: 10 μM, two replicates
[9] = biological target: T1, EZH2; experiment: EZH2 methyltransferase inhibition assay; assay type: biochemical; settings: Fig. S2A
[10] = biological target: T2, EZH1; experiment: EZH1 methyltransferase inhibition assay; assay type: biochemical; settings: Fig. S2B
[11] = test system: EOL-1 cells; experiment: Cell viability WST-8; assay type: cell-based
[12] = test system: MV4; 11 cells; experiment: Cell viability WST-8; assay type: cell-based
[13] = test system: K562 cells; experiment: Cell viability assay, K562; assay type: cell-based; settings: K562 cells (insensitive to EZH2 KO), Fig. S4
[14] = biological target: T1, EZH2; experiment: Western blot of EZH2 protein level in RS4; assay type: cell-based; settings: 11 cells, 24 h treatment, 0.1 and 0.3 μM
Target sequence in this assay (Q15910 whole entry): as the sequence (Q15910 whole entry) above
Target sequence in this assay (O75530 2-441 partner limits assumed): as the sequence (O75530 2-441 partner limits assumed) above
Target sequence in this assay (Q15022 whole entry partner): as the sequence (Q15022 whole entry partner) above

[15] = biological target: T1, EZH2; experiment: Western blot of EZH2 protein level in BT549 cells; assay type: cell-based; settings: 48 h treatment
Target sequence in this assay (Q15910 whole entry): as the sequence (Q15910 whole entry) above
Target sequence in this assay (O75530 2-441 partner limits assumed): as the sequence (O75530 2-441 partner limits assumed) above
Target sequence in this assay (Q15022 whole entry partner): as the sequence (Q15022 whole entry partner) above

[16] = biological target: T1, EZH2; experiment: Western blot of EZH2 protein level in MDA-MB-468 cells; assay type: cell-based; settings: 48 h treatment
Target sequence in this assay (Q15910 whole entry): as the sequence (Q15910 whole entry) above
Target sequence in this assay (O75530 2-441 partner limits assumed): as the sequence (O75530 2-441 partner limits assumed) above
Target sequence in this assay (Q15022 whole entry partner): as the sequence (Q15022 whole entry partner) above

[17] = test system: BT549 in vitro spheroids; experiment: Bio-Assembler 3D in vitro spheroid TNBC model; assay type: cell-based; settings: 5 d treatment
[18] = Mouse pharmacokinetic study
[19] = Tolerability observed in the mouse PK study; settings: mice, single IP injection 50 mg/kg

## CCN(c1cc(-c2ccc(CN3CCN(CCC(=O)NCCCCCCCCCCC(=O)N[C@H](C(=O)N4C[C@H](O)C[C@H]4C(=O)NCc4ccc(-c5scnc5C)cc4)C(C)(C)C)CC3)cc2)cc(C(=O)N(C)Cc2c(C)cc(C)n(C)c2=O)c1C)C1CCOCC1 [MS8847N1, (2S,4R)-1-((S)-2-(11-(3-(4-((3’-(ethyl(tetrahydro-2H-pyran-4-yl)amino)-4′-methyl-5’-(methyl((1,4,6-trimethyl-2-oxo-1,2-dihydropyridin-3-yl)methyl)carbamoyl)-[1,1′-biphenyl]-4-yl)methyl)piperazin-1-yl)propanamido)undecanamido)-3,3-dimethylbutanoyl)-4-hydroxy-N-(4-(4-methylthiazol-5-yl)benzyl)pyrrolidine-2-carboxamide]
[1]
  EZH2 degradation: did not induce EZH2 degradation

## CCN(c1cc(-c2ccc(CN3CCN(CCC(=O)NCCCCCCCCC(=O)N[C@H](C(=O)N4C[C@H](O)C[C@H]4C(=O)NCc4ccc(-c5scnc5C)cc4)C(C)(C)C)CC3)cc2)cc(C(=O)NCc2c(C)cc(C)[nH]c2=O)c1C)C1CCOCC1 [Compound 6, (2S,4R)-1-((S)-2-(9-(3-(4-((3’-(((4,6-dimethyl-2-oxo-1,2-dihydropyridin-3-yl)methyl)carbamoyl)-5’-(ethyl(tetrahydro-2H-pyran-4-yl)amino)-4′-methyl-[1,1′-biphenyl]-4-yl)methyl)piperazin-1-yl)propanamido)nonanamido)-3,3-dimethylbutanoyl)-4-hydroxy-N-(4-(4-methylthiazol-5-yl)benzyl)pyrrolidine-2-carboxamide]
[2]; SAR study (Fig. 3)
  EZH2 degradation (EZH2 protein level): partial degradation

## (2R,4S)-1-((S)-2-(11-(3-(4-((3’-(((4,6-dimethyl-2-oxo-1,2-dihydropyridin-3-yl)methyl)carbamoyl)-5’-(ethyl(tetrahydro-2H-pyran-4-yl)amino)-4′-methyl-[1,1′-biphenyl]-4-yl)methyl)piperazin-1-yl)propanamido)undecanamido)-3,3-dimethylbutanoyl)-4-hydroxy-N-(4-(4-methylthiazol-5-yl)benzyl)pyrrolidine-2-carboxamide [MS8847N2]
[1]
  EZH2 degradation: did not induce EZH2 degradation

## CCN(c1cc(-c2ccc(CN3CCN(CCC(=O)NCCCCCCCC(=O)N[C@H](C(=O)N4C[C@H](O)C[C@H]4C(=O)NCc4ccc(-c5scnc5C)cc4)C(C)(C)C)CC3)cc2)cc(C(=O)NCc2c(C)cc(C)[nH]c2=O)c1C)C1CCOCC1 [Compound 5, (2S,4R)-1-((S)-2-(8-(3-(4-((3’-(((4,6-dimethyl-2-oxo-1,2-dihydropyridin-3-yl)methyl)carbamoyl)-5’-(ethyl(tetrahydro-2H-pyran-4-yl)amino)-4′-methyl-[1,1′-biphenyl]-4-yl)methyl)piperazin-1-yl)propanamido)octanamido)-3,3-dimethylbutanoyl)-4-hydroxy-N-(4-(4-methylthiazol-5-yl)benzyl)pyrrolidine-2-carboxamide]
[2]; SAR study (Fig. 3)
  EZH2 degradation (EZH2 protein level): partial degradation

## CCN(c1cc(-c2ccc(CN3CCN(CCC(=O)NCCCCCCCCCC(=O)N[C@H](C(=O)N4C[C@H](O)C[C@H]4C(=O)NCc4ccc(-c5scnc5C)cc4)C(C)(C)C)CC3)cc2)cc(C(=O)NCc2c(C)cc(C)[nH]c2=O)c1C)C1CCOCC1 [Compound 7, (2S,4R)-1-((S)-2-(10-(3-(4-((3’-(((4,6-dimethyl-2-oxo-1,2-dihydropyridin-3-yl)methyl)carbamoyl)-5’-(ethyl(tetrahydro-2H-pyran-4-yl)amino)-4′-methyl-[1,1′-biphenyl]-4-yl)methyl)piperazin-1-yl)propanamido)decanamido)-3,3-dimethylbutanoyl)-4-hydroxy-N-(4-(4-methylthiazol-5-yl)benzyl)pyrrolidine-2-carboxamide]
[2]; 0.1 μM (Fig. 3)
  EZH2 degradation (EZH2 protein level): reduced the EZH2 protein level completely
[2]; 1 μM (Fig. 3)
  EZH2 degradation (EZH2 protein level): less profoundly

## CCN(c1cc(-c2ccc(CN3CCOCC3)cc2)cc(C(=O)NCc2c(C)cc(C)[nH]c2=O)c1C)C1CCOCC1 [EPZ-6438, Tazemetostat]
[3]
  effect on cell growth: no effect
[4]
  effect on cell growth: no effect

## CCN(c1cc(-c2ccc(CN3CCN(CCC(=O)NCCCCCCCCCCC(=O)N[C@H](C(=O)N4C[C@H](O)C[C@H]4C(=O)NCc4ccc(-c5scnc5C)cc4)C(C)(C)C)CC3)cc2)cc(C(=O)NCc2c(C)cc(C)[nH]c2=O)c1C)C1CCOCC1 [MS8847, (2S,4R)-1-((S)-2-(11-(3-(4-((3’-(((4,6-dimethyl-2-oxo-1,2-dihydropyridin-3-yl)methyl)carbamoyl)-5’-(ethyl(tetrahydro-2H-pyran-4-yl)amino)-4′-methyl-[1,1′-biphenyl]-4-yl)methyl)piperazin-1-yl)propanamido)undecanamido)-3,3-dimethylbutanoyl)-4-hydroxy-N-(4-(4-methylthiazol-5-yl)benzyl)pyrrolidine-2-carboxamide]
[2]; 300 nM
  time at which EZH2 degradation started: 8 h
  time to maximum EZH2 degradation: ≤ 24 h
[2]; 24 h, 0.1 and 0.3 μM, comparison of five degraders (Fig. 7A)
  EZH2 degradation: complete degradation
[2]; 24 h treatment at the indicated concentration (Fig. 4A, Fig. 6A)
  EZH2 degradation: effectively induced EZH2 degradation
[2]; 0.1 μM (Fig. 3)
  EZH2 degradation (EZH2 protein level): complete EZH2 degradation
[2]; 1 μM (Fig. 3)
  EZH2 degradation (EZH2 protein level): complete EZH2 degradation
[5]
  reduction of the H3K27me3 mark: reduced the H3K27me3 mark
[6]
  EED degradation: potently degraded
[7]
  EZH1 degradation: does not degrade
[8]
  inhibition of any of the 20 methyltransferases: ≤ 50%
[9]
  inhibition of the enzymatic activity of EZH2: inhibits
[10]
  inhibition of the enzymatic activity of EZH1: inhibits
[11]
  fold more potent than MS8815 (anti-proliferative IC50): more than 3 fold
[12]
  fold more potent than U3i (cell growth IC50): over 2 fold
[13]
  cell growth inhibition: did not inhibit cell growth
[1]
  EZH2 degradation: near-complete degradation
[14]
  EZH2 degradation: induced EZH2 degradation
[15]
  EZH2 degradation: potent EZH2 degradation
[16]
  EZH2 degradation: potent EZH2 degradation
[17]
  cell viability of BT549 cells in spheroids (Cell Titer Glo 3D): significantly reduced
[17]; compared to DMSO-treated control tumors
  size of BT549 in vitro spheroids: significantly reduced
[18]; male Swiss albino mice, single IP injection 50 mg/kg, HCl form
  time at which Cmax was observed: 4 h
[18]; male, Swiss Albino, mouse, plasma, ip, 50 mg/kg
  concentration at 9 h: > 1000 nM
[19]
  clinical signs of toxicity: did not exhibit obvious clinical signs of toxicity
